# Assay results published in ChEMBL document CHEMBL1159042, “Discovery of N-aryl-9-oxo-9H-fluorene-1-carboxamides as a new series of apoptosis inducers using a cell- and caspase-based high-throughput screening assay. 2. Structure-activity relationships of the 9-oxo-9H-fluorene ring” (Bioorg Med Chem Lett, 2010).
# The source made the active and inactive calls. The rule behind the calls is not given here.
# Columns and labels:
# [1] = system: SNU-398; assay: Induction of apoptosis in human SNU398 cells assessed as caspase activation after 48 hrs by HTS assay; type: functional, cell-based; details: SNU-398, 48 h
# [2] = system: T47D; assay: Induction of apoptosis in human T47D cells assessed as caspase activation after 48 hrs by HTS assay; type: functional, cell-based
# [3] = system: HCT-116; assay: Induction of apoptosis in human HCT116 cells assessed as caspase activation after 48 hrs by HTS assay; type: functional, cell-based; details: HCT-116, 48 h
# [4] = system: HCT-116; assay: Growth inhibition of human HCT116 cells after 48 hrs; type: functional; details: HCT-116, 48 h
# [5] = system: T47D; assay: Growth inhibition of human T47D cells after 48 hrs; type: functional
# [6] = system: SNU-398; assay: Growth inhibition of human SNU398 cells after 48 hrs; type: functional; details: SNU-398, 48 h
# [7] = system: T47D; assay: Induction of apoptosis in human T47D cells assessed as accumulation at S phase at 2 uM after 48 hrs by propidium iodide-based flow cytometry; type: functional
# [8] = system: T47D; assay: Induction of apoptosis in human T47D cells assessed as accumulation at G2M phase at 2 uM after 48 hrs by propidium iodide-based flow cytometry; type: functional
# [9] = system: SNU-398; assay: Ratio of drug to paclitaxel for induction of apoptosis in human SNU398 cells assessed as caspase activation after 48 hrs by HTS assay; type: functional
# [10] = system: T47D; assay: Induction of apoptosis in human T47D cells assessed as accumulation at sub G1 phase at 2 uM after 48 hrs by propidium iodide-based flow cytometry; type: functional
# [11] = system: T47D; assay: Induction of apoptosis in human T47D cells assessed as accumulation at G1 phase at 2 uM after 48 hrs by propidium iodide-based flow cytometry; type: functional
# [12] = system: T47D; assay: Induction of apoptosis in human T47D cells assessed as accumulation at sub G1 phase at 2 uM after 24 hrs by propidium iodide-based flow cytometry; type: functional
# [13] = system: T47D; assay: Ratio of drug to vinblastin for induction of apoptosis in human T47D cells assessed as caspase activation after 48 hrs by HTS assay; type: functional
# [14] = system: T47D; assay: Induction of apoptosis in human T47D cells assessed as accumulation at S phase at 2 uM after 24 hrs by propidium iodide-based flow cytometry; type: functional
# [15] = system: T47D; assay: Ratio of drug to paclitaxel for induction of apoptosis in human T47D cells assessed as caspase activation after 48 hrs by HTS assay; type: functional
# [16] = system: HCT-116; assay: Ratio of drug to paclitaxel for induction of apoptosis in human HCT116 cells assessed as caspase activation after 48 hrs by HTS assay; type: functional
# [17] = system: T47D; assay: Induction of apoptosis in human T47D cells assessed as accumulation at G1 phase at 2 uM after 24 hrs by propidium iodide-based flow cytometry; type: functional
# [18] = Inhibition of tubulin polymerization at 2 uM
# [19] = system: SNU-398; assay: Ratio of drug to vinblastin for induction of apoptosis in human SNU398 cells assessed as caspase activation after 48 hrs by HTS assay; type: functional
# [20] = system: T47D; assay: Induction of apoptosis in human T47D cells assessed as accumulation at G2M phase at 2 uM after 24 hrs by propidium iodide-based flow cytometry; type: functional
# [21] = system: HCT-116; assay: Ratio of drug to vinblastin for induction of apoptosis in human HCT116 cells assessed as caspase activation after 48 hrs by HTS assay; type: functional
# [22] = Inhibition of tubulin polymerization at 0.5 uM
# [23] = Inhibition of tubulin polymerization at 3 uM
Structure (SMILES),EC50 [1] [nM],EC50 [2] [nM],EC50 [3] [nM],further results
[N-]=[N+]=Nc1ccc2c(c1)C(=O)c1c(C(=O)Nc3ccccc3-n3cccn3)cccc1-2,150,470,290,–
Cc1cccc(NC(=O)c2cccc3c2Cc2ccccc2-3)c1C,> 10000,> 10000,> 10000,–
Cc1ccccc1NC(=O)c1cccc2c1C(O)c1ccccc1-2 (configuration not stated),> 10000,3000,> 10000,–
CC[C@]1(O)C[C@@H]2CN(CCc3c([nH]c4ccccc34)[C@@](C(=O)OC)(c3cc4c(cc3OC)N(C)[C@H]3[C@@](O)(C(=O)OC)[C@H](OC(C)=O)[C@]5(CC)C=CCN6CC[C@]43[C@@H]65)C2)C1 [VINBLASTINE],–,–,–,GI50 [4]: 10 nM; GI50 [5]: 7 nM; GI50 [6]: 5 nM
Cc1ccccc1NC(=O)c1cccc2c1Cc1ccccc1-2,> 10000,1700,> 10000,–
O=C(Nc1ccccc1-n1cccn1)c1cccc2c1oc1ccccc12,> 10000,> 10000,> 10000,–
O=C(Nc1ccccc1-n1cccn1)c1cccc2c1sc1ccccc12,1500,2100,2200,–
O=C(Nc1ccccc1-n1cccn1)c1cccc2c1C(=O)c1ccccc1-2,–,–,–,GI50 [4]: 1100 nM; GI50 [5]: 160 nM; GI50 [6]: 780 nM
CC(=O)O[C@H]1C(=O)[C@@]2(C)[C@H]([C@H](OC(=O)c3ccccc3)[C@]3(O)C[C@H](OC(=O)[C@H](O)[C@@H](NC(=O)c4ccccc4)c4ccccc4)C(C)=C1C3(C)C)[C@]1(OC(C)=O)CO[C@@H]1C[C@@H]2O [PACLITAXEL],–,–,–,GI50 [4]: 60 nM; GI50 [5]: 26 nM; GI50 [6]: 61 nM
O=C(Nc1ccccc1-n1cc(Br)cn1)c1cccc2c1C(=O)c1cc([N+](=O)[O-])ccc1-2,1400,1300,1500,–
Cc1ccc(C)c(NC(=O)c2cccc3c2Cc2ccccc2-3)c1,> 10000,2400,> 10000,–
O=C(Nc1ccccc1-n1cccn1)c1cccc2c1C(=O)c1cc([N+](=O)[O-])ccc1-2,150,290,220,GI50 [4]: 420 nM; Ratio [9]: <10; Ratio [13]: <10; Ratio [15]: <10; Ratio [16]: <10; GI50 [5]: 110 nM; inhibition [18]: 50%; Ratio [19]: <10; GI50 [6]: 72 nM; Ratio [21]: <10; inhibition [22]: Active; inhibition [23]: 50%

# The next lines start with results.
EC50 [1] [nM],EC50 [2] [nM],EC50 [3] [nM],Structure (SMILES),further results
150,970,370,Nc1ccc2c(c1)C(=O)c1c(C(=O)Nc3ccccc3-n3cccn3)cccc1-2,Activity [7]: 10%; GI50 [4]: 510 nM; Activity [8]: 24%; Ratio [9]: <10; Activity [10]: 50%; Activity [11]: 10%; Activity [12]: 12%; Ratio [13]: <10; Activity [14]: 14%; Ratio [15]: <10; Ratio [16]: <10; Activity [17]: 11%; GI50 [5]: 150 nM; inhibition [18]: 50%; Ratio [19]: <10; Activity [20]: 60%; GI50 [6]: 84 nM; Ratio [21]: <10; inhibition [22]: Active; inhibition [23]: 50%
> 10000,> 10000,> 10000,O=C(Nc1ccccc1-n1cccn1)c1cccc2c1[nH]c1ccccc12,–
480,> 10000,> 10000,O=C(Nc1ccccc1-n1cccn1)c1cccc2c1S(=O)(=O)c1ccccc1-2,–
> 10000,> 10000,> 10000,O=C(Nc1ccccc1-n1cccn1)c1cccc2c3ccccc3[s+]([O-])c12 (configuration not stated),–
> 10000,> 10000,> 10000,Cc1ccc(NC(=O)c2cccc3c2Cc2ccccc2-3)c(C)c1,–
> 10000,> 10000,> 10000,O=C(Nc1ccccc1-n1cccn1)c1cccc2c1OCC2,–
> 10000,> 10000,> 10000,O=C(Nc1ccccc1-n1cccn1)c1ccccc1C(=O)c1ccccc1,–
6900,3200,6200,O=C(Nc1ccccc1-n1cccn1)c1cccc2c1Cc1ccccc1-2,–
